Patent publication US20170042809A1, “STABLE LIPOSOMAL FORMULATIONS OF CARBONIC ANHYDRASE INHIBITORS FOR OCULAR DRUG DELIVERY” (Peregrine Ophthalmic PTE LTD., priority 2015, published 2017)
Where a name gives a salt, the structure may show the parent alone.

How the values were obtained:
[1] = Stability of LipoDH and dorzolamide HCl aqueous solution on storage at 5° C.; type: physicochemical
Description: The LipoDH formulation was described above in EXAMPLE 2. A dorzolamide HCl aqueous solution was prepared by dissolving 200 mg dorzolamide HCl in 20 mL of PBS. The dorzolamide content of both formulations was analyzed after storing them at 5° C. for 7 and 14 days. The temperature was monitored and recorded continuously to ensure stable temperature conditions.

[2] = In-vitro drug release by dialysis against PBS pH 7.4, HPLC; type: physicochemical; conditions: within 48 hours, dialysis (MWCO 8-10 kDal) against PBS pH 7.4
Description: Drug release studies were performed by dialysing a dorzolamide HCl solution and LipoDH prepared as described above in EXAMPLE 2 and EXAMPLE 3, respectively, against PBS at a pH of 7.4 and measuring the amount of dorzolamide released by HPLC.
Briefly, 1 mL of dorzolamide HCl solution and 1 ml LipoDH were each loaded into a dialysis tube (molecular weight cut-off of 8-10 kDal) before placing the tube into 40 mL of PBS in a 50 mL tube. The PBS in the tubes was sampled at 1, 4, 7, 24, 48, 72 and 96 hours at which time the dorzolamide concentration was measured by HPLC.
The cumulative drug release percentage vs release time for both dorzolamide HCl solution (unencapsulated) and LipoDH (encapsulated) was calculated and plotted. […] Without a doubt, encapsulation of dorzolamide in a liposome results in a formulation capable of sustained drug delivery.

## CCN[C@H]1C[C@H](C)S(=O)(=O)c2sc(S(N)(=O)=O)cc21 [dorzolamide HCl]
[1]; at 7 days, storage at 5° C.
  degradation percentage: 57.9%
[1]; start of stability test
  degradation percentage, Start of Stability Test: 0.0%
  drug content, Start of Stability Test: 9.5 mg/mL
[1]; stored at 5° C. for 7 days
  degradation percentage, 7 Days Incubation: 57.9%
  drug content, 7 Days Incubation: 4.0 mg/mL
[1]; stored at 5° C. for 14 days
  degradation percentage, 14 Days Incubation: 58.9%
  drug content, 14 Days Incubation: 3.9 mg/mL
[2]
  cumulative drug release percentage: 80%
